One assay deals with Maackia amurensis. In words: Binding affinity to biotin-labeled Maackia amurensis agglutinin in pH 7.4 Tris buffer by fluorescence microarray method.
A further assay deals with Datura stramonium. The experiment in a line: Binding affinity to biotin-labeled Datura stramonium agglutinin in pH 7.4 Tris buffer by fluorescence microarray method.
The subject of the next assay is Arachis hypogaea. In words: Binding affinity to biotin-labeled Arachis hypogaea agglutinin in pH 7.4 Tris buffer by fluorescence microarray method.
Assay [1] deals with Sambucus racemosa subsp. sieboldiana. The experiment in a line: Binding affinity to biotin-labeled Sambucus sieboldiana agglutinin in pH 7.4 Tris buffer by fluorescence microarray method.
In the next assay the test system is Erythrina crista-galli. The experiment in a line: Binding affinity to biotin-labeled Erythrina crista-galli agglutinin in pH 7.4 Tris buffer by fluorescence microarray method.
The next assay concerns Triticum aestivum. In words: Binding affinity to biotin-labeled Wheat germ agglutinin in pH 7.4 Tris buffer by fluorescence microarray method.
A further assay relates to Canavalia ensiformis. The experiment in a line: Binding affinity to biotin-labeled Canavalia ensiformis agglutinin in pH 7.4 Tris buffer by fluorescence microarray method.
Assay [2] concerns the target Laminin subunit alpha-1 (Homo sapiens) (UniProt P25391). In words: Binding affinity to biotin-labeled human recombinant laminin-1 at 10 ug/ml in pH 7.4 Tris buffer by fluorescence microarray method.
For assay [3], the species on record is Homo sapiens. The experiment in a line: Binding affinity to biotin-labeled human recombinant laminin-2 at 10 ug/ml in pH 7.4 Tris buffer by fluorescence microarray method.
In assay [4] the target is Lactotransferrin (Homo sapiens) (UniProt P02788). The experiment in a line: Binding affinity to biotin-labeled lactoferrin (unknown origin) at 10 ug/ml in pH 7.4 Tris buffer by fluorescence microarray method.
Chain of Lactotransferrin (Homo sapiens) (P02788 whole entry): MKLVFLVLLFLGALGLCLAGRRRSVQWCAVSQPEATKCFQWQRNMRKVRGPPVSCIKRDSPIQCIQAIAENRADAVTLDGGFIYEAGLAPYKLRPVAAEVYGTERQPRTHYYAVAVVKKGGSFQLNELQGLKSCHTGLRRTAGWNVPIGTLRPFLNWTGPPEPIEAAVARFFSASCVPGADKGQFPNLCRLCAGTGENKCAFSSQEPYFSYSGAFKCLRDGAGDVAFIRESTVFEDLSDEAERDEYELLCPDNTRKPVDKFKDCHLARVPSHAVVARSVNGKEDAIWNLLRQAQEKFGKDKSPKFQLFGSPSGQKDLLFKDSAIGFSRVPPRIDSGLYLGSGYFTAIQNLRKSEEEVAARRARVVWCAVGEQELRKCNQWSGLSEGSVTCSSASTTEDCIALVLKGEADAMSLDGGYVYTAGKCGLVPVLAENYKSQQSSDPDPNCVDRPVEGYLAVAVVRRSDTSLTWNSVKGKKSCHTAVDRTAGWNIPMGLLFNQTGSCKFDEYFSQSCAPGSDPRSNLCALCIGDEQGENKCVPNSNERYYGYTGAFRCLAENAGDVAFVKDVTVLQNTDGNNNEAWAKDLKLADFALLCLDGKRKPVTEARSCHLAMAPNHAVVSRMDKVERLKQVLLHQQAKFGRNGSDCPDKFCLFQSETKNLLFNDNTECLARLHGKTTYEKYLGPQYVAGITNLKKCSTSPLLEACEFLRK
Assay [5] has as its target Laminin subunit alpha-1 (Homo sapiens) (UniProt P25391). In words: Binding affinity to biotin-labeled human recombinant laminin-1 at 10 ug/ml in pH 5.6 MES buffer by fluorescence microarray method.
Assay [6] has as its target Lactotransferrin (Homo sapiens) (UniProt P02788). In words: Binding affinity to biotin-labeled lactoferrin (unknown origin) at 10 ug/ml in pH 5.6 MES buffer by fluorescence microarray method.
For assay [7], the species on record is Homo sapiens. In words: Binding affinity to biotin-labeled human recombinant laminin-2 at 10 ug/ml in 5.6 MES buffer by fluorescence microarray method.
Assay [8] in a line: Binding affinity to biotin-labeled Agaricus bisporus agglutinin in pH 7.4 Tris buffer by fluorescence microarray method.

Calls of active or inactive are those of the source. The rule behind the calls is not given here. Square brackets hold non-standard residues; d marks the D form. Peptide text beside a SMILES is read from it. * marks the point of attachment. X2 = CC(=O)N[C@H]1[C@H](O[C@H]2[C@@H](O)[C@H](O)[C@@H](CO)O[C@@H]2*)O[C@H](CO)[C@@H](O[C@@H]2O[C@H](CO)[C@H](O)[C@H](O)[C@H]2O)[C@@H]1O; Orn(CH(NH2)2) = NC(N)NCCC[C@H](N)C(=O)O; Hexanoyl(5-oxo) = CC(=O)CCCC(=O)*

Chain of Laminin subunit alpha-1 (Homo sapiens) (P25391 whole entry): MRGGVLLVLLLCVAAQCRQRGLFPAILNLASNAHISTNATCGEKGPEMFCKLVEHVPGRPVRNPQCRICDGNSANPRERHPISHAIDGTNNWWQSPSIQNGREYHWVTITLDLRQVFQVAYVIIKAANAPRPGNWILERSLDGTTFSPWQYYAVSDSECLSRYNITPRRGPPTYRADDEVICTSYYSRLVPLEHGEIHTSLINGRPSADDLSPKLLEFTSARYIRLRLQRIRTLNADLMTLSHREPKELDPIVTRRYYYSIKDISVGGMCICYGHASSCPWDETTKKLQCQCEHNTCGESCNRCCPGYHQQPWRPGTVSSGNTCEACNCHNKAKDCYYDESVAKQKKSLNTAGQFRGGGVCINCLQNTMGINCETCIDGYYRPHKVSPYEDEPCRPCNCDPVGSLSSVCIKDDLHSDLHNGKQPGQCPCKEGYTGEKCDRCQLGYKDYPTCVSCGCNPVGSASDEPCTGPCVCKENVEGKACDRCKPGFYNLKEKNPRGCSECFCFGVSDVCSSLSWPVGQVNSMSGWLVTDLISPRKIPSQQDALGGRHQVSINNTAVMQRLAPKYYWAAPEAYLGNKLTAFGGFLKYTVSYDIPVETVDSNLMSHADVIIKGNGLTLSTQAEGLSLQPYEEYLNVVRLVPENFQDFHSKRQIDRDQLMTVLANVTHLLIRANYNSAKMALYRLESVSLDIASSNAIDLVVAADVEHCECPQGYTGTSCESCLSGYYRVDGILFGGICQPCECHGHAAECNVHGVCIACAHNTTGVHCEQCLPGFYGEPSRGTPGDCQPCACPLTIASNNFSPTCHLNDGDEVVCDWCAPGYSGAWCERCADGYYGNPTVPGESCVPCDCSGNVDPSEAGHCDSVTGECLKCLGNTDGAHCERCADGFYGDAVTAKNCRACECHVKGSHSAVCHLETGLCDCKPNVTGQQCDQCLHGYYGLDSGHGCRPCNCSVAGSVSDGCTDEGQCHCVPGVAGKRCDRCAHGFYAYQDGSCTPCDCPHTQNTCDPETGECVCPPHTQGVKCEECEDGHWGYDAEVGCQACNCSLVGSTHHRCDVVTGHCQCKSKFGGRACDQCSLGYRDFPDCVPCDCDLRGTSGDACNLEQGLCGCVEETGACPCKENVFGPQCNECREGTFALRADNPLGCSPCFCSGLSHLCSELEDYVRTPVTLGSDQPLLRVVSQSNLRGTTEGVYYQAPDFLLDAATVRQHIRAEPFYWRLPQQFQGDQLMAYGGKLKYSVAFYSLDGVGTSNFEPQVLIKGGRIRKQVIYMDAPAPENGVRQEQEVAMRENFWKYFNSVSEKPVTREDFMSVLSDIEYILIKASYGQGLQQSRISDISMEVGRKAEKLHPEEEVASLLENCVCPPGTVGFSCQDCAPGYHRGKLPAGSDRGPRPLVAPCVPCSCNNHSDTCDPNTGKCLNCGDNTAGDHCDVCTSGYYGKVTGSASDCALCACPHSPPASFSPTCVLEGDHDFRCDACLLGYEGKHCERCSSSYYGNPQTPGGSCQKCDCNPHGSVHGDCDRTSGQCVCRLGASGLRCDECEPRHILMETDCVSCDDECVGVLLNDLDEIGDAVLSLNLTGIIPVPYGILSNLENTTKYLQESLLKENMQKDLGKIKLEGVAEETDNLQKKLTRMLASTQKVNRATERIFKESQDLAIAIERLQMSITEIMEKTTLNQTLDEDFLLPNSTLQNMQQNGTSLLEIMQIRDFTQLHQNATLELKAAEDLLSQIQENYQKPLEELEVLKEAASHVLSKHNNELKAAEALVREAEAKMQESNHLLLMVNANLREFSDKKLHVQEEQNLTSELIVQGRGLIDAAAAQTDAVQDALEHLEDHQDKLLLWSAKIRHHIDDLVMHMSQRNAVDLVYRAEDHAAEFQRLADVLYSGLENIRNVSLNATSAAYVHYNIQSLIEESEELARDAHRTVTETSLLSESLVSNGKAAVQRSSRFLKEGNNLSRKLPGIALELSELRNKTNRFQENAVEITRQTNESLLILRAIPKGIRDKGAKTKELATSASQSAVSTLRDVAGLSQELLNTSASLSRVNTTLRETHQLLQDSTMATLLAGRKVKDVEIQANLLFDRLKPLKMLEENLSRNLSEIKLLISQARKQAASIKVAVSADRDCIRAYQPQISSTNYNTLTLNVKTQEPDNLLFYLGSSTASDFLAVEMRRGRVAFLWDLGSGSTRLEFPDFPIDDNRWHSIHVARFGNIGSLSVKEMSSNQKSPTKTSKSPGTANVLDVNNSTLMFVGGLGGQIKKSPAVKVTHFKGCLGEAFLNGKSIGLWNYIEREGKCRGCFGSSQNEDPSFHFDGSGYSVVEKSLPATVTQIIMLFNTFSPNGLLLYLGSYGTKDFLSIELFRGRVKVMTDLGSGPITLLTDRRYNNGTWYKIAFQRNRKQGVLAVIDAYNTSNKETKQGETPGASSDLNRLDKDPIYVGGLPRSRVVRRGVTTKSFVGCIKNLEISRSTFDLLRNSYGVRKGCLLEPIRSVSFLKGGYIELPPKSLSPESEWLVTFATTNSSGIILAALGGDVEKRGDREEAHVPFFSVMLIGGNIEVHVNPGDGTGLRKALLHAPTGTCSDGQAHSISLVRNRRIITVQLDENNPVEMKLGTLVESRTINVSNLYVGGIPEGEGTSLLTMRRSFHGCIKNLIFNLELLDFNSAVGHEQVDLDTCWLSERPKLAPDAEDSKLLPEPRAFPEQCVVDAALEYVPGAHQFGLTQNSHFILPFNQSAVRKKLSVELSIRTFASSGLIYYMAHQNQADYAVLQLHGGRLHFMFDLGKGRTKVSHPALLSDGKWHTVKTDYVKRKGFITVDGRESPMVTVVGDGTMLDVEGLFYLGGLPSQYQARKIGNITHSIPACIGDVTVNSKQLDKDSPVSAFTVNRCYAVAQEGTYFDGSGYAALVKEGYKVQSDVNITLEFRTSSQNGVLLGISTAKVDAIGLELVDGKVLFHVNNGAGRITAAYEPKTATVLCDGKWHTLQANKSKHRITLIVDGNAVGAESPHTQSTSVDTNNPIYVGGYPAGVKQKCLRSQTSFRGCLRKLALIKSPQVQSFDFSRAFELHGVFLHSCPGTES

For the compound `CC[C@H](C)[C@H](NC(=O)[C@H](C)NC(=O)CNC(=O)[C@H](CCCNC(=N)N)NC(=O)[C@@H](NC(=O)CCCC(C)=O)[C@@H](C)O)C(=O)N[C@H](C(=O)N[C@@H](CCC(N)=O)C(=O)N[C@H](C(=O)N1CCC[C@H]1C(=O)N[C@H](C(=O)N[C@@H](CC(C)C)C(=O)NCC(=O)N1CCC[C@H]1C(=O)N[C@H](C(=O)N[C@@H](CCC(N)=O)C(=O)N1CCC[C@H]1C(=O)N[C@H](C(=O)N[C@@H](CCCNC(N)N)C(=O)N[C@H](C(N)=O)C(C)C)[C@@H](C)O[C@H]1O[C@H](CO)[C@@H](O)[C@H](O)[C@@H]1O[C@@H]1O[C@H](CO)[C@@H](O[C@@H]2O[C@H](CO)[C@H](O)[C@H](O)[C@H]2O)[C@H](O)[C@H]1NC(C)=O)[C@@H](C)CC)[C@@H](C)O)[C@@H](C)O)[C@@H](C)CC` ({Hexanoyl(5-oxo)}-TRGAIIQTPTLGPIQPT(X2)[Orn(CH(NH2)2)]V-NH2), the result (with Maackia amurensis; in the assay with Datura stramonium; in the assay listed under Homo sapiens [3]; in [4]) was inactive. The outcome (in the assay on Arachis hypogaea; in assay [1]; in the assay with Erythrina crista-galli; in the assay on Triticum aestivum; in the assay on Canavalia ensiformis; in [2]) was Active. In addition, the result (in assay [5]; in assay [6]; in the assay filed under Homo sapiens [7]; in assay [8]) was Active.
In the case of `CC[C@H](C)[C@H](NC(=O)[C@H](C)NC(=O)CNC(=O)[C@H](CCCNC(=N)N)NC(=O)[C@@H](NC(=O)CCCC(C)=O)[C@@H](C)O)C(=O)N[C@H](C(=O)N[C@@H](CCC(N)=O)C(=O)N[C@H](C(=O)N1CCC[C@H]1C(=O)N[C@H](C(=O)N[C@@H](CC(C)C)C(=O)NCC(=O)N1CCC[C@H]1C(=O)N[C@H](C(=O)N[C@@H](CCC(N)=O)C(=O)N1CCC[C@H]1C(=O)N[C@H](C(=O)N[C@@H](CCCNC(=N)N)C(=O)N[C@H](C(N)=O)C(C)C)[C@@H](C)O)[C@@H](C)CC)[C@@H](C)O)[C@@H](C)O)[C@@H](C)CC` ({Hexanoyl(5-oxo)}-TRGAIIQTPTLGPIQPTRV-NH2), the outcome (in the assay with Maackia amurensis; in the assay on Datura stramonium; in the assay filed under Homo sapiens [3]; in [4]) was inactive. The outcome (in the assay with Arachis hypogaea; in assay [1]; in the assay with Erythrina crista-galli; in the assay with Triticum aestivum; with Canavalia ensiformis; in assay [2]) was Active. Besides, the outcome (in assay [5]; in [6]; in the assay filed under Homo sapiens [7]; in [8]) was Active.

Source of the values: ChEMBL document CHEMBL4387728, “Synthetic glycopeptides reveal specific binding pattern and conformational change at O-mannosylated position of α-dystroglycan by POMGnT1 catalyzed GlcNAc modification” (Bioorg Med Chem, 2019).
